# Data from patent US11008323B2, “Substituted tricyclic 1,4-benzodiazepinone derivatives as allosteric modulators of group II metabotropic glutamate receptors” (Domain Therapeutics, priority 2015, dated 2021).
# Counter-ions that a name gives are not always drawn.
row,Structure (SMILES),melting point [°C]
1,"Cc1cc(-c2ccc3c(c2)-n2cc(-c4ccccc4)cc2C(=O)N(C)C32CC2)cc(C)n1 (as salt: hydrochloride) [Example 97, 5-Methyl-2-phenyl-9-(2,6-dimethyl-pyridin-4-yl)-spiro[benzo[f]pyrrolo[1,2-a][1,4]diazepine-6,1′-cyclopropan]-4(5H)-one]",227 to 234
2,Cc1ncccc1-c1ccc2c(c1)-n1cc(-c3ccccc3F)cc1C(=O)N(C)C21CC1 (as salt: hydrochloride) [Example 151],185 to 190
3,"Cc1ncccc1-c1cc2c(cc1F)C1(CC1)N(C)C(=O)c1cccn1-2 (as salt: hydrochloride) [Example 77, 8-Fluoro-5-methyl-9-(2-methyl-pyridin-3-yl)-spiro[benzo[f]pyrrolo[1,2-a][1,4]diazepine-6,1′-cyclopropan]-4(5H)-one]",200 to 210
4,CCc1ncccc1-c1ccc2c(c1)-n1cc(C)cc1C(=O)N(C)C21CC1 (as salt: hydrochloride) [Example 199],179 to 184
5,"CN1C(=O)c2cc(-c3ccccc3)cn2-c2cc(-c3ccc(N)nc3)ccc2C12CC2 (as salt: hydrochloride) [Example 96, 5-Methyl-2-phenyl-9-(6-amino-pyridin-3-yl)-spiro[benzo[f]pyrrolo[1,2-a][1,4]diazepine-6,1′-cyclopropan]-4(5H)-one]",> 250
6,"Cc1ncccc1-c1cccc2c1-n1cccc1C(=O)N(C)C21CC1 (as salt: hydrochloride) [Example 92, 10-(2-Methyl-pyridin-3-yl)-5-methyl-spiro[benzo[f]pyrrolo[1,2-a][1,4]diazepine-6,1′-cyclopropan]-4(5H)-one]",250
7,"Cc1cc(-c2ccc3c(c2)-n2nc(-c4ccccc4)cc2C(=O)N(C)C32CC2)ccn1 (as salt: hydrochloride) [Example 122, 9-(2-Methyl-pyridin-4-yl)-5-methyl-2-phenyl-spiro[benzo[f]pyrazolo[1,5-a][1,4]diazepine-6,1′-cyclopropan]-4(5H)-one]",> 250
8,"Cc1ccc(-c2ccc3c(c2)-n2cccc2C(=O)N(C)C32CC2)c(C)n1 (as salt: hydrochloride) [Example 56, 5-Methyl-9-(2,6-dimethylpyridin-3-yl)-spiro[benzo[f]pyrrolo[1,2-a][1,4]diazepine-6,1′-cyclopropan]-4(5H)-one]",> 250
9,"CN1C(=O)c2cccn2-c2cc(-c3ccncc3)ccc2C12CC2 (as salt: hydrochloride) [Example 22, 5-Methyl-9-(pyridin-4-yl)-spiro[benzo[f]pyrrolo[1,2-a][1,4]diazepine-6,1′-cyclopropan]-4(5H)-one]",> 250
10,Cc1ccc(-c2ccc3c(c2)-n2cc(-c4nccs4)cc2C(=O)N(C)C32CC2)cn1 (as salt: hydrochloride) [Example 158],228 to 239
11,"CC1c2ccc(-c3ccc(N(C)C)nc3)cc2-n2cccc2C(=O)N1C (stereo not shown) (as salt: hydrochloride) [Example 219, 9-(6-Dimethylamino-pyridin-3-yl)-5,6-dimethyl-5,6-dihydro-benzo[f]pyrrolo[1,2-a][1,4]diazepin-4-one]",145 to 162
12,"Cc1cnccc1-c1ccc2c(c1)-n1cccc1C(=O)N(C)C21CC1 (as salt: hydrochloride) [Example 38, 5-Methyl-9-(3-methylpyridin-4-yl)-spiro[benzo[f]pyrrolo[1,2-a][1,4]diazepine-6,1′-cyclopropan]-4(5H)-one]",> 250
13,"CCCc1ncccc1-c1ccc2c(c1)-n1cccc1C(=O)N(C)C21CC1 (as salt: hydrochloride) [Example 61, 5-Methyl-9-(2-propylpyridin-3-yl)-spiro[benzo[f]pyrrolo[1,2-a][1,4]diazepine-6,1′-cyclopropan]-4(5H)-one]",150 to 157
14,"CCc1ncccc1-c1ccc2c(c1)-n1cc(-c3ccccc3)cc1C(=O)N(C)C21CC1 (as salt: hydrochloride) [Example 99, 5-Methyl-2-phenyl-9-(2-ethyl-pyridin-3-yl)-spiro[benzo[f]pyrrolo[1,2-a][1,4]diazepine-6,1′-cyclopropan]-4(5H)-one]",179 to 183
15,CCc1ncccc1-c1ccc2c(c1)-n1cc(CO)cc1C(=O)N(C)C21CC1 (as salt: hydrochloride) [Example 203],> 250
16,"CCC1c2ccc(-c3cccnc3C)cc2-n2cccc2C(=O)N1C (stereo not shown) (as salt: hydrochloride) [Example 220, 6-Ethyl-5-methyl-9-(2-methyl-pyridin-3-yl)-5,6-dihydro-benzo[f]pyrrolo[1,2-a][1,4]diazepin-4-one]",160 to 170
17,Cc1cc2n(c1)-c1cc(-c3cccnc3C)ccc1C1(CC1)N(C)C2=O (as salt: hydrochloride) [Example 144],162 to 175
18,Cc1ccc(-c2ccc3c(c2)-n2cc(-c4ccnn4C)cc2C(=O)N(C)C32CC2)cn1 (as salt: hydrochloride) [Example 159],187 to 194
19,"CN1C(=O)c2cc(-c3ccccc3)cn2-c2cc(-c3cccnc3)ccc2C12CC2 (as salt: hydrochloride) [Example 93, 5-Methyl-2-phenyl-9-pyridin-3-yl-spiro[benzo[f]pyrrolo[1,2-a][1,4]diazepine-6,1′-cyclopropan]-4(5H)-one]",218 to 222

row,Structure (SMILES),melting point [°C]
1,Cc1ncccc1-c1ccc2c(c1)-n1cc(-c3ccc(F)cc3)cc1C(=O)N(C)C21CC1 (as salt: hydrochloride) [Example 150],226 to 230
2,CCc1cc2n(c1)-c1cc(-c3cccnc3C)ccc1C1(CC1)N(C)C2=O (as salt: hydrochloride) [Example 197],165 to 175
3,"Cc1ncccc1-c1cc(F)c2c(c1)-n1cccc1C(=O)N(C)C21CC1 (as salt: hydrochloride) [Example 73, 7-Fluoro-5-methyl-9-(2-methyl-pyridin-3-yl)-spiro[benzo[f]pyrrolo[1,2-a][1,4]diazepine-6,1′-cyclopropan]-4(5H)-one]",174 to 188
4,"CN1C(=O)c2cc(-c3ccccc3)nn2-c2cc(-c3ccc(N)nc3)ccc2C12CC2 (as salt: hydrochloride) [Example 127, 9-(6-Amino-pyridin-3-yl)-5-methyl-2-phenyl-spiro[benzo[f]pyrazolo[1,5-a][1,4]diazepine-6,1′-cyclopropan]-4(5H)-one]",> 250
5,"CN1C(=O)c2cccn2-c2cc(-c3ccc(N4CCCCC4)nc3)ccc2C12CC2 (as salt: hydrochloride) [Example 43, 5-Methyl-9-(3,4,5,6-tetrahydro-2H-[1,2′]bipyridinyl-5′-yl)-spiro[benzo[f]pyrrolo[1,2-a][1,4]diazepine-6,1′-cyclopropan]-4(5H)-one]",188 to 193
6,Cc1ncccc1-c1ccc2c(c1)-n1cc(N(C)C)cc1C(=O)N(C)C21CC1 (as salt: hydrochloride) [Example 154],120 to 134
7,Cc1ncccc1-c1ccc2c(c1)-n1cc(C(=O)C3CCCC3)cc1C(=O)N(C)C21CC1 (as salt: hydrochloride) [Example 194],177 to 190
8,Cc1ncccc1-c1ccc2c(c1)-n1cc(-c3ccncc3)cc1C(=O)N(C)C21CC1 (as salt: hydrochloride) [Example 145],> 250
9,Cc1ncccc1-c1ccc2c(c1)-n1cc(C3CC3)cc1C(=O)N(C)C21CC1 (as salt: hydrochloride) [Example 155],190 to 198
10,COCc1cc2n(c1)-c1cc(-c3ccc(C)nc3)ccc1C1(CC1)N(C)C2=O (as salt: hydrochloride) [Example 205],113 to 123
11,"CN1Cc2ccc(-c3ccc(N)nc3)cc2-n2cc(-c3ccccc3)cc2C1=O (as salt: hydrochloride) [Example 165, 9-(6-Amino-pyridin-3-yl)-5-methyl-2-phenyl-5,6-dihydro-benzo[f]pyrrolo[1,2-a][1,4]diazepin-4-one]",> 250
12,"Cc1ncccc1-c1ccc2c(c1)-n1cccc1C(=O)N(C)C2C (stereo not shown) (as salt: hydrochloride) [Example 218, 5,6-Dimethyl-9-(2-methyl-pyridin-3-yl)-5,6-dihydro-benzo[f]pyrrolo[1,2-a][1,4]diazepin-4-one]",140 to 156
13,"CCc1ccc(-c2ccc3c(c2)-n2cc(-c4ccccc4)cc2C(=O)N(C)C32CC2)cn1 (as salt: hydrochloride) [Example 112, 5-methyl-2-phenyl-9-(6-ethylpyridin-3-yl)-spiro[benzo[f]pyrrolo[1,2-a][1,4]diazepine-6,1′-cyclopropan]-4(5H)-one]",209 to 212
14,"Cc1ccc(-c2ccc3c(c2)-n2cc(-c4ccccc4)cc2C(=O)N(C)C32CC2)cn1 (as salt: hydrochloride) [Example 103, 5-Methyl-2-phenyl-9-(6-methyl-pyridin-3-yl)-spiro[benzo[f]pyrrolo[1,2-a][1,4]diazepine-6,1′-cyclopropan]-4(5H)-one]",200 to 215
15,Cc1ncccc1-c1ccc2c(c1)-n1cc(-c3ccnn3C)cc1C(=O)N(C)C21CC1 (as salt: hydrochloride) [Example 160],229 to 237
16,"CN1C(=O)c2cccn2-c2cc(-c3cnc(N)c(C(F)(F)F)c3)ccc2C12CC2 (as salt: hydrochloride) [Example 40, 5-Methyl-9-(6-amino-5-trifluoromethyl-pyridin-3-yl)-spiro[benzo[f]pyrrolo[1,2-a][1,4]diazepine-6,1′-cyclopropan]-4(5H)-one]",> 250
17,"Cc1ncccc1-c1ccc2c(c1F)-n1cccc1C(=O)N(C)C21CC1 (as salt: hydrochloride) [Example 75, 10-Fluoro-5-methyl-9-(2-methyl-pyridin-3-yl)-spiro[benzo[f]pyrrolo[1,2-a][1,4]diazepine-6,1′-cyclopropan]-4(5H)-one]",166 to 184
18,"Cc1ncccc1-c1ccc2c(c1)-n1cc(-c3ccccc3)nc1C(=O)N(C)C2 (as salt: hydrochloride) [Example 166, 5-Methyl-9-(2-methylpyridin-3-yl)-2-phenyl-5,6-dihydro-4H-benzo[f]imidazo[1,2-a][1,4]diazepin-4-one]",240 to 245
